As usually defined, the IC50 is the point on the concentration scale where inhibition reaches its midpoint.

The target of this assay is T1, P70S6K (T412E mutant, Millipore) (Homo sapiens, UniProt P23443, T412E).
T1 construct: purchased Millipore
T1 sequence (P23443 whole entry T412E): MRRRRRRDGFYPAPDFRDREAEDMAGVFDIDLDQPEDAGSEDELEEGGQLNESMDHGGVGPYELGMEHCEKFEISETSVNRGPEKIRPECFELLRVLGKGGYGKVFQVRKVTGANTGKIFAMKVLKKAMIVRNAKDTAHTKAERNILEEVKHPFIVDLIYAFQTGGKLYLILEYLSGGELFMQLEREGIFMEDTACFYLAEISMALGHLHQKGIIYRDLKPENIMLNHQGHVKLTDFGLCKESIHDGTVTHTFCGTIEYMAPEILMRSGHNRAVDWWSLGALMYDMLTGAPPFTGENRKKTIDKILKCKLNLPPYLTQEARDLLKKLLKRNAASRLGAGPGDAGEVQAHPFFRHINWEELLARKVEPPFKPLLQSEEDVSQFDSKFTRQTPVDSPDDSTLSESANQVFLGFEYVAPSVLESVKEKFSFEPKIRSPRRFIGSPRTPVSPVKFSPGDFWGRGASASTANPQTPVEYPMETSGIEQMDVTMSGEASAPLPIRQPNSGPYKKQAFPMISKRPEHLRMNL
The assay can be described thus: p70S6K enzyme assay. Format: biochemical. The settings on record: class symbol; 3 nM P70S6K, 24 μM ATP; read-out: IC50 (p70S6K). The gist of the method: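 T412E-mutant P70S6K (3 nM) with 24 μM ATP and 1 μM FITC-AHA-AKRRRLSSLRA-OH S6-derived peptide in 100 mM Hepes pH 7.5, 5 mM MgCl2, 1 mM DTT, 0.015% Brij; 90 min at 25° C, EDTA stop. Phosphorylated product and substrate peptide separated and quantified by microfluidic capillary electrophoresis (Caliper LabChip 3000).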
Regarding `O=C(NCc1cn(Cc2ccccc2)nn1)c1sccc1Nc1ccnc2[nH]ccc12` [Example 101, 3-(1H-Pyrrolo[2,3-b]pyridin-4-ylamino)-thiophene-2-carboxylic acid (1-benzyl-1H-[1,2,3]triazol-4-ylmethyl)-amide], the IC50 is 100 to 1000 nM.
`CC(C)(C)OC(=O)N1CCC(NC(=O)c2ccsc2Nc2ccnc3[nH]ccc23)C1` (stereo not shown) [Example 102, 3-{[2-(1H-Pyrrolo[2,3-b]pyridin-4-ylamino)-thiophene-3-carbonyl]-amino}-pyrrolidine-1-carboxylic acid tert-butyl ester]: the IC50 was 100 to 1000 nM.
The same measure for `O=C(NC1CCNC1)c1ccsc1Nc1ccnc2[nH]ccc12` (stereo not shown) [Example 103, 2-(1H-Pyrrolo[2,3-b]pyridin-4-ylamino)-thiophene-3-carboxylic acid pyrrolidin-3-ylamide]: below 100 nM; for `CC(C)(C)OC(=O)N1CCCC(NC(=O)c2ccsc2Nc2ccnc3[nH]ccc23)C1` (stereo not shown) [Example 104, 3-{[2-(1H-Pyrrolo[2,3-b]pyridin-4-ylamino)-thiophene-3-carbonyl]-amino}-piperidine-1-carboxylic acid tert-butyl ester]: 100 to 1000 nM; for `O=C(NC1CCCNC1)c1ccsc1Nc1ccnc2[nH]ccc12` (stereo not shown) [Example 105, 2-(1H-Pyrrolo[2,3-b]pyridin-4-ylamino)-thiophene-3-carboxylic acid piperidin-3-ylamide]: below 100 nM.
In the case of `NCC(NC(=O)c1sccc1Nc1ccnc2[nH]ccc12)c1cccc(F)c1` (stereo not shown) [Example 106, 3-(1H-Pyrrolo[2,3-b]pyridin-4-ylamino)-thiophene-2-carboxylic acid [2-amino-1-(3-fluoro-phenyl)-ethyl]-amide] it was below 100 nM.
The same measure for `COc1ccccc1C(CN)NC(=O)c1sccc1Nc1ccnc2[nH]ccc12` (stereo not shown) [Example 107, 3-(1H-Pyrrolo[2,3-b]pyridin-4-ylamino)-thiophene-2-carboxylic acid [2-amino-1-(2-methoxy-phenyl)-ethyl]-amide]: below 100 nM; for `NCC(NC(=O)c1ccsc1Nc1ccnc2[nH]ccc12)c1cccc(F)c1` (stereo not shown) [Example 108, 2-(1H-Pyrrolo[2,3-b]pyridin-4-ylamino)-thiophene-3-carboxylic acid [2-amino-1-(3-fluoro-phenyl)-ethyl]-amide]: below 100 nM; for `COc1ccccc1C(CN)NC(=O)c1ccsc1Nc1ccnc2[nH]ccc12` (stereo not shown) [Example 109, 2-(1H-Pyrrolo[2,3-b]pyridin-4-ylamino)-thiophene-3-carboxylic acid [2-amino-1-(2-methoxy-phenyl)-ethyl]-amide]: below 100 nM.
Take `COc1ccc(C(CN)NC(=O)c2ccsc2Nc2ccnc3[nH]ccc23)cc1OC` (stereo not shown) [Example 110, 2-(1H-Pyrrolo[2,3-b]pyridin-4-ylamino)-thiophene-3-carboxylic acid [2-amino-1-(3,4-dimethoxy-phenyl)-ethyl]-amide]: the IC50 is below 100 nM.
On to `Nc1cccc(CNC(=O)c2ccsc2Nc2ccnc3[nH]ccc23)c1` [Example 111, 2-(1H-Pyrrolo[2,3-b]pyridin-4-ylamino)-thiophene-3-carboxylic acid 3-amino-benzylamide], for which the 50% inhibitory concentration (IC50) is below 100 nM.
Turning to `O=C(NCc1ccccc1)c1ccsc1Nc1ccnc2[nH]ccc12` [Example 112, 2-(1H-Pyrrolo[2,3-b]pyridin-4-ylamino)-thiophene-3-carboxylic acid benzylamide], the IC50 was below 100 nM.
The same measure for `COc1ccc(C(CN)NC(=O)c2sccc2Nc2ccnc3[nH]ccc23)cc1OC` (stereo not shown) [Example 113, 3-(1H-Pyrrolo[2,3-b]pyridin-4-ylamino)-thiophene-2-carboxylic acid [2-amino-1-(3,4-dimethoxy-phenyl)-ethyl]-amide]: below 100 nM; for `[N-]=[N+]=NC[C@@H](NC(=O)c1ccsc1Nc1ccnc2[nH]ccc12)c1ccccc1` [Example 114, 2-(1H-Pyrrolo[2,3-b]pyridin-4-ylamino)-thiophene-3-carboxylic acid ((S)-2-azido-1-phenyl-ethyl)-amide]: below 100 nM; for `N#CC[C@@H](NC(=O)c1sccc1Nc1ccnc2[nH]ccc12)c1ccccc1` [Example 115, 3-(1H-Pyrrolo[2,3-b]pyridin-4-ylamino)-thiophene-2-carboxylic acid ((R)-2-cyano-1-phenyl-ethyl)-amide]: below 100 nM.
Regarding `N#CC(NC(=O)c1ccsc1Nc1ccnc2[nH]ccc12)c1ccccc1` (stereo not shown) [Example 116, 2-(1H-Pyrrolo[2,3-b]pyridin-4-ylamino)-thiophene-3-carboxylic acid (cyano-phenyl-methyl)-amide], the IC50 is below 100 nM.
As for `CC(C)C[C@@H](CO)NC(=O)c1ccsc1Nc1ccnc2[nH]ccc12` [Example 117, 2-(1H-Pyrrolo[2,3-b]pyridin-4-ylamino)-thiophene-3-carboxylic acid ((S)-1-hydroxymethyl-3-methyl-butyl)-amide], the IC50 was below 100 nM.
The same measure for `O=C(N[C@H](CO)Cc1ccccc1)c1ccsc1Nc1ccnc2[nH]ccc12` [Example 118, 2-(1H-Pyrrolo[2,3-b]pyridin-4-ylamino)-thiophene-3-carboxylic acid ((S)-1-hydroxymethyl-2-phenyl-ethyl)-amide]: below 100 nM; for `O=C(N[C@@H](CO)Cc1ccccc1)c1ccsc1Nc1ccnc2[nH]ccc12` [Example 119, 2-(1H-Pyrrolo[2,3-b]pyridin-4-ylamino)-thiophene-3-carboxylic acid ((R)-1-hydroxymethyl-2-phenyl-ethyl)-amide]: 100 to 1000 nM.
In the case of `NC(=O)C[C@@H](NC(=O)c1sccc1Nc1ccnc2[nH]ccc12)c1ccccc1` [Example 120, 3-(1H-Pyrrolo[2,3-b]pyridin-4-ylamino)-thiophene-2-carboxylic acid ((R)-2-carbamoyl-1-phenyl-ethyl)-amide] it was below 100 nM.
The same measure for `Cc1ccc(C(CN)NC(=O)c2ccsc2Nc2ccnc3[nH]ccc23)cc1` (stereo not shown) [Example 126, 2-(1H-Pyrrolo[2,3-b]pyridin-4-ylamino)-thiophene-3-carboxylic acid (2-amino-1-p-tolyl-ethyl)-amide]: below 100 nM; for `COc1cccc(C(CN)NC(=O)c2ccsc2Nc2ccnc3[nH]ccc23)c1` (stereo not shown) [Example 127, 2-(1H-Pyrrolo[2,3-b]pyridin-4-ylamino)-thiophene-3-carboxylic acid [2-amino-1-(3-methoxy-phenyl)-ethyl]-amide]: below 100 nM.
Take `NCC(NC(=O)c1ccsc1Nc1ccnc2[nH]ccc12)c1ccc(Cl)c(Cl)c1` (stereo not shown) [Example 128, 2-(1H-Pyrrolo[2,3-b]pyridin-4-ylamino)-thiophene-3-carboxylic acid [2-amino-1-(3,4-dichloro-phenyl)-ethyl]-amide]: the IC50 was below 100 nM.
As for `O=C(Nc1cccc(CNC(=O)c2sccc2Nc2ccnc3[nH]ccc23)c1)c1ccnc(Cl)c1` [Example 129, 2-Chloro-N-[3-({[3-(1H-pyrrolo[2,3-b]pyridin-4-ylamino)-thiophene-2-carbonyl]-amino}-methyl)-phenyl]-isonicotinamide], the IC50 is below 100 nM.
The same measure for `NCC(NC(=O)c1ccsc1Nc1ccnc2[nH]ccc12)c1cccc(Cl)c1` (stereo not shown) [Example 130, 2-(1H-Pyrrolo[2,3-b]pyridin-4-ylamino)-thiophene-3-carboxylic acid [2-amino-1-(3-chloro-phenyl)-ethyl]-amide]: below 100 nM.

The values above are taken from patent publication US9023847B2, “Azaheterocyclic compounds” (Merck Patent GmbH, priority 2009, dated 2015).
